In patent US11926628B2 (Gilead Sciences, Inc., priority 2021, dated 2024) one finds IC50 and EC50 data, which are given here for 24 compounds.

The target of one experiment is human DGKα (Homo sapiens (Human), UniProt P23743). As to the kind of experiment: DGKα Biochemical Activity Assay (ADP-Glo). The following applies: recombinant DGKα 1 nM, 100 μM ATP, 18:1 DAG/POPS/octylglucoside micelles, 1 hour at 25° C.; geometric mean; read-out: HTBS DGKa 1X ATP KM IC50. The gist of the method:
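Recombinant DGKα (1 nM final) was preincubated with compound for 15 min, then reacted for 1 h at 25 °C with 100 μM ATP and octylglucoside micelles of 0.85 mM 18:1 DAG and 6.75 mM POPS in pH 7.2 MOPS with 5 mM MgCl2. ADP formed was read by ADP-Glo luminescence. IC50 came from four-parameter fits normalized to DMSO and 50 μM CU3, and values were geometric means.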
(In ADP-Glo the light output rises with the ADP produced.)

The subject of experiment [1] is Jurkat NFκB-luciferase cells. As to the kind of experiment: Jurkat NFκB-Luciferase Assay. Type of experiment: cell-based. The following applies: Homo sapiens; Jurkat NFκB-luciferase cells activated with anti-CD3 antibody (OKT3), 2.5 hrs at 37° C.; geometric mean; read-out: DGK NFKb Luciferase EC50. In short, it runs like this:
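Jurkat NFκB-luciferase reporter cells stimulated on plate-bound anti-CD3 (5 ug/ml coating) with compound, 2.5 hrs at 37° C then 30 min at 25° C; luminescence read with One-Glo Ex. Normalized to DMSO (basal) and 1 micromolar compound (maximum) controls; EC50 from four-parameter fit, geometric mean across experiments.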

Chain of human DGKα (P23743 whole entry): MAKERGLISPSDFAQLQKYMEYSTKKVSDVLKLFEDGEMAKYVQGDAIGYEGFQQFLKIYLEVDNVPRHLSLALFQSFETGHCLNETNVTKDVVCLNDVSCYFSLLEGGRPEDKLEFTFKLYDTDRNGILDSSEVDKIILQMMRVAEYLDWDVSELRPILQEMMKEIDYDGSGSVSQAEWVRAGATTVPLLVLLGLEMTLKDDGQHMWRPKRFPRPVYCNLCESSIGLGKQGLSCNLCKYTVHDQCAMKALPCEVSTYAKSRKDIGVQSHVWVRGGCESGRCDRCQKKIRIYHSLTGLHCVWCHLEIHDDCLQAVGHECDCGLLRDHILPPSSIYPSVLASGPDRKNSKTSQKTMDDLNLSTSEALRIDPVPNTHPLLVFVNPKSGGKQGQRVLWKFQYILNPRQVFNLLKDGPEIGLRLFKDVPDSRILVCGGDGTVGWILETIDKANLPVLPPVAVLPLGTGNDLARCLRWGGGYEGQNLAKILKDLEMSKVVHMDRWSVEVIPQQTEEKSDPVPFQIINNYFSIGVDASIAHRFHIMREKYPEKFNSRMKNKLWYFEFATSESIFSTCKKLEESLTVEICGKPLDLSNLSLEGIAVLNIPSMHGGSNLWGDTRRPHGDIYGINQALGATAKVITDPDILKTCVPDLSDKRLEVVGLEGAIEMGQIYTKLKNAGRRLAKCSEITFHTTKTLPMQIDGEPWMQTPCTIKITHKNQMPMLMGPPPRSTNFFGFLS

As a reminder, the IC50 is the concentration that inhibits the measured activity by half. As a reminder, the EC50 is the concentration needed to bring the measured effect to its halfway point. On to `Cc1nnc2nc(N3CCOCc4c(C#CC5(C)CC5)cccc43)c3c(F)cncc3n12` [Example 79, 1-(6-fluoro-1-methylpyrido[4,3-e][1,2,4]triazolo[4,3-a]pyrimidin-5-yl)-6-((1-methylcyclopropyl)ethynyl)-1,2,3,5-tetrahydrobenzo[e][1,4]oxazepine], for which the concentration for half-maximal inhibition (IC50) at human DGKα was found to be 2.28 nM. Besides, the EC50 in experiment [1] turned out to be 2 nM.

Take `Cc1nnc2nc(N3CCOCc4c(C#CC5CC5)cccc43)c3c(F)cncc3n12` [Example 80, 6-(cyclopropylethynyl)-1-(6-fluoro-1-methylpyrido[4,3-e][1,2,4]triazolo[4,3-a]pyrimidin-5-yl)-1,2,3,5-tetrahydrobenzo[e][1,4]oxazepine]: at human DGKα, the IC50 worked out at 1.68 nM. Also, the EC50 in experiment [1] came out at 4.78 nM.

As to `Cc1nnc2nc(N3CCOCc4c(Br)cccc43)c3c(F)cncc3n12` [Example 81, 6-bromo-1-(6-fluoro-1-methylpyrido[4,3-e][1,2,4]triazolo[4,3-a]pyrimidin-5-yl)-1,2,3,5-tetrahydrobenzo[e][1,4]oxazepine], the IC50 at human DGKα was 151 nM. The EC50 in experiment [1] is 46.7 nM.

Regarding `CC1(C#Cc2cccc3c2CCCN3c2nc3nncn3c3cnccc23)CC1` [Example 82], the IC50 at human DGKα is 10.3 nM. Moreover, the EC50 in experiment [1] was found to be 1.3 nM.

`FC(F)(F)C1(C#Cc2cccc3c2CCCN3c2nc3nncn3c3cnccc23)CC1` [Example 83, 8-[5-[2-[1-(trifluoromethyl)cyclopropyl]ethynyl]-3,4-dihydro-2H-quinolin-1-yl]-2,4,5,7,12-pentazatricyclo[7.4.0.02,6]trideca-1(13),3,5,7,9,11-hexaene]: on human DGKα, the IC50 turned out to be 14.2 nM. Besides, the EC50 in experiment [1] stood at 1.76 nM.

For the compound `CC(C)(C#Cc1cccc2c1CCCN2c1nc2nncn2c2cncc(F)c12)C(F)(F)F` [Example 84, 10-fluoro-8-[5-(4,4,4-trifluoro-3,3-dimethyl-but-1-ynyl)-3,4-dihydro-2H-quinolin-1-yl]-2,4,5,7,12-pentazatricyclo[7.4.0.02,6]trideca-1(13),3,5,7,9,11-hexaene], the IC50 on human DGKα is 10.7 nM. For the same compound, in experiment [1], the EC50 came out at 1.19 nM.

Regarding `CC(C)(O)C#Cc1cccc2c1CCCN2c1nc2nncn2c2cncc(F)c12` [Example 85, 4-[1-(10-fluoro-2,4,5,7,12-pentazatricyclo[7.4.0.02,6]trideca-1(13),3,5,7,9,11-hexaen-8-yl)-3,4-dihydro-2H-quinolin-5-yl]-2-methyl-but-3-yn-2-ol], on human DGKα, the IC50 came out at 13.4 nM. The EC50 in experiment [1] came to 12.7 nM.

With `CC1(C#Cc2cccc3c2CCCN3c2nc3nncn3c3cncc(F)c23)CC1` [Example 86, 10-fluoro-8-[5-[2-(1-methylcyclopropyl)ethynyl]-3,4-dihydro-2H-quinolin-1-yl]-2,4,5,7,12-pentazatricyclo[7.4.0.02,6]trideca-1(13),3,5,7,9,11-hexaene], the IC50 on human DGKα amounted to 3.39 nM. For the same compound, the EC50 in experiment [1] was found to be 0.518 nM.

As to `Fc1cncc2c1c(N1CCCc3c(C#CC4(C(F)(F)F)CC4)cccc31)nc1nncn12` [Example 87, 10-fluoro-8-[5-[2-[1-(trifluoromethyl)cyclopropyl]ethynyl]-3,4-dihydro-2H-quinolin-1-yl]-2,4,5,7,12-pentazatricyclo[7.4.0.02,6]trideca-1(13),3,5,7,9,11-hexaene], at human DGKα, the IC50 amounted to 8.6 nM. Also, the EC50 in experiment [1] worked out at 0.839 nM.

Regarding `CCN(c1cc(F)cc(C#CC(C)(C)C(F)(F)F)c1)c1nc2nncn2c2cncc(F)c12` [Example 88, N-ethyl-10-fluoro-N-[3-fluoro-5-(4,4,4-trifluoro-3,3-dimethyl-but-1-ynyl)phenyl]-2,4,5,7,12-pentazatricyclo[7.4.0.02,6]trideca-1(13),3,5,7,9,11-hexaen-8-amine], the IC50 on human DGKα stood at 41.1 nM. Further, the EC50 in experiment [1] was 1.22 nM.

As to `CCN(c1cc(F)cc(C#CC2(C)CC2)c1)c1nc2nncn2c2cncc(F)c12` [Example 89, N-ethyl-10-fluoro-N-[3-fluoro-5-[2-(1-methylcyclopropyl)ethynyl]phenyl]-2,4,5,7,12-pentazatricyclo[7.4.0.02,6]trideca-1(13),3,5,7,9,11-hexaen-8-amine], on human DGKα, the IC50 was 6.18 nM. The EC50 in experiment [1] is 0.655 nM.

Take `CCN(c1cc(F)cc(C#CC2(C(F)(F)F)CC2)c1)c1nc2nncn2c2cncc(F)c12` [Example 90, N-ethyl-10-fluoro-N-[3-fluoro-5-[2-[1-(trifluoromethyl)cyclopropyl]ethynyl]phenyl]-2,4,5,7,12-pentazatricyclo[7.4.0.02,6]trideca-1(13),3,5,7,9,11-hexaen-8-amine]: the IC50 at human DGKα is 12 nM. Besides, the half-maximal effective concentration (EC50) in experiment [1] was found to be 0.715 nM.

For `CN(c1cc(F)cc(C#CC2(C)CC2)c1)c1nc2nncn2c2cncc(F)c12` [Example 91, 10-fluoro-N-[3-fluoro-5-[2-(1-methylcyclopropyl)ethynyl]phenyl]-N-methyl-2,4,5,7,12-pentazatricyclo[7.4.0.02,6]trideca-1(13),3,5,7,9,11-hexaen-8-amine], the IC50 on human DGKα was found to be 6.25 nM. In experiment [1], the concentration for a half-maximal effect (EC50) is 1.25 nM.

For the compound `CN(c1cc(F)cc(C#CC(C)(C)O)c1)c1nc2nncn2c2cncc(F)c12` [Example 92, 4-[3-fluoro-5-[(10-fluoro-2,4,5,7,12-pentazatricyclo[7.4.0.02,6]trideca-1(13),3,5,7,9,11-hexaen-8-yl)-methyl-amino]phenyl]-2-methyl-but-3-yn-2-ol], the IC50 on human DGKα came to 17.4 nM. Moreover, in experiment [1], the EC50 worked out at 32.1 nM.

`CN(c1cc(F)cc(C#CC2(C(F)(F)F)CC2)c1)c1nc2nncn2c2cncc(F)c12` [Example 93, 10-fluoro-N-[3-fluoro-5-[2-[1-(trifluoromethyl)cyclopropyl]ethynyl]phenyl]-N-methyl-2,4,5,7,12-pentazatricyclo[7.4.0.02,6]trideca-1(13),3,5,7,9,11-hexaen-8-amine]: the IC50 at human DGKα was 7.17 nM. Further, the EC50 in experiment [1] stood at 0.763 nM.

Take `Cc1nnc2nc(N3CCOCc4c(C#CC5(C(C)(F)F)CC5)cccc43)c3c(F)cncc3n12` [Example 94, 6-((1-(1,1-difluoroethyl)cyclopropyl)ethynyl)-1-(6-fluoro-1-methylpyrido[4,3-e][1,2,4]triazolo[4,3-a]pyrimidin-5-yl)-1,2,3,5-tetrahydrobenzo[e][1,4]oxazepine]: the IC50 on human DGKα was 25.1 nM. Also, the EC50 in experiment [1] worked out at 3.39 nM.

Take `Cc1nnc2nc(N3CCOCc4c(C#Cc5cnn(C)c5)cccc43)c3c(F)cncc3n12` [Example 95, 1-(6-fluoro-1-methylpyrido[4,3-e][1,2,4]triazolo[4,3-a]pyrimidin-5-yl)-6-((1-methyl-1H-pyrazol-4-yl)ethynyl)-1,2,3,5-tetrahydrobenzo[e][1,4]oxazepane]: at human DGKα, the IC50 amounted to 6.95 nM. Besides, the EC50 in experiment [1] stood at 31.2 nM.

Turning to `Cc1nnc2nc(N3CCOCc4c(C#CC(C)(C)C#N)cccc43)c3c(F)cncc3n12` [Example 96, 4-(1-(6-fluoro-1-methylpyrido[4,3-e][1,2,4]triazolo[4,3-a]pyrimidin-5-yl)-1,2,3,5-tetrahydrobenzo[e][1,4]oxazepin-6-yl)-2,2-dimethylbut-3-ynenitrile], at human DGKα, the IC50 was 3.84 nM. Besides, in experiment [1], the EC50 was determined as 6.63 nM.

For the compound `Cc1nnc2nc(N3CCCc4c(C#CC(C)(C)C#N)cccc43)c3c(F)cncc3n12` [Example 97, 4-(1-(6-fluoro-1-methylpyrido[4,3-e][1,2,4]triazolo[4,3-a]pyrimidin-5-yl)-1,2,3,4-tetrahydroquinolin-5-yl)-2,2-dimethylbut-3-ynenitrile], at human DGKα, the IC50 is 4.65 nM. The EC50 in experiment [1] was 4.1 nM.

As to `Cc1nnc2nc(N3CCCc4c(C#CC(C)(C)O)cccc43)c3cc(F)cnc3n12` [Example 98, 4-(1-(3-fluoro-9-methylpyrido[3,2-e][1,2,4]triazolo[4,3-a]pyrimidin-5-yl)-1,2,3,4-tetrahydroquinolin-5-yl)-2-methylbut-3-yn-2-ol], the half-inhibitory concentration (IC50) at human DGKα was 49 nM. In addition, the 50% effective concentration (EC50) in experiment [1] worked out at 26.2 nM.

In the case of `Cc1nnc2nc(N(CC(F)F)c3cc(F)cc(C#CC(C)(C)O)c3)c3cc(F)cnc3n12` [Example 99, 4-(3-((2,2-difluoroethyl)(3-fluoro-9-methylpyrido[3,2-e][1,2,4]triazolo[4,3-a]pyrimidin-5-yl)amino)-5-fluorophenyl)-2-methylbut-3-yn-2-ol], at human DGKα, the IC50 was 38.9 nM. Besides, in experiment [1], the EC50 worked out at 53.1 nM.

`Cc1nnc2nc(N3CCCc4c(C#CC5(C(F)F)CC5)cccc43)c3cc(F)cnc3n12` [Example 100, 5-(5-((1-(difluoromethyl)cyclopropyl)ethynyl)-3,4-dihydroquinolin-1(2H)-yl)-3-fluoro-9-methylpyrido[3,2-e][1,2,4]triazolo[4,3-a]pyrimidine]: on human DGKα, the IC50 was determined as 7.93 nM. Besides, in experiment [1], the EC50 worked out at 2.26 nM.

Regarding `Cc1nnc2nc(N3CCCc4c(C#CC5(C(F)(F)F)CC5)cccc43)c3cc(F)cnc3n12` [Example 101, 3-fluoro-9-methyl-5-(5-((1-(trifluoromethyl)cyclopropyl)ethynyl)-3,4-dihydroquinolin-1(2H)-yl)pyrido[3,2-e][1,2,4]triazolo[4,3-a]pyrimidine], the concentration for half-maximal inhibition (IC50) on human DGKα is 6.21 nM. In addition, the EC50 in experiment [1] worked out at 1.01 nM.

For the compound `Cc1nnc2nc(N3CCCc4c(C#CC(C)(C)C(F)(F)F)cccc43)c3cc(F)cnc3n12` [Example 102, 3-fluoro-9-methyl-5-(5-(4,4,4-trifluoro-3,3-dimethylbut-1-yn-1-yl)-3,4-dihydroquinolin-1(2H)-yl)pyrido[3,2-e][1,2,4]triazolo[4,3-a]pyrimidine], on human DGKα, the IC50 stood at 21.4 nM. The EC50 in experiment [1] was found to be 1.8 nM.
